target: T1, Human TRPC6 (Homo sapiens, UniProt Q9Y210); test: Evaluation of TRPC6 channel inhibitory activity (2), HEK293 cells with stably introduced human TRPC6, OAG stimulation, FLIPR tetra (Compound Nos. 1293 to 1405); format: cell-based; settings: HEK293 cells with stably introduced human TRPC6, OAG 50 μM/0.5% DMSO, read-out: Inhibitory activity (pIC50 class) (converted)
T1 construct: expressed in transfected cells
T1 sequence (Q9Y210 1-931): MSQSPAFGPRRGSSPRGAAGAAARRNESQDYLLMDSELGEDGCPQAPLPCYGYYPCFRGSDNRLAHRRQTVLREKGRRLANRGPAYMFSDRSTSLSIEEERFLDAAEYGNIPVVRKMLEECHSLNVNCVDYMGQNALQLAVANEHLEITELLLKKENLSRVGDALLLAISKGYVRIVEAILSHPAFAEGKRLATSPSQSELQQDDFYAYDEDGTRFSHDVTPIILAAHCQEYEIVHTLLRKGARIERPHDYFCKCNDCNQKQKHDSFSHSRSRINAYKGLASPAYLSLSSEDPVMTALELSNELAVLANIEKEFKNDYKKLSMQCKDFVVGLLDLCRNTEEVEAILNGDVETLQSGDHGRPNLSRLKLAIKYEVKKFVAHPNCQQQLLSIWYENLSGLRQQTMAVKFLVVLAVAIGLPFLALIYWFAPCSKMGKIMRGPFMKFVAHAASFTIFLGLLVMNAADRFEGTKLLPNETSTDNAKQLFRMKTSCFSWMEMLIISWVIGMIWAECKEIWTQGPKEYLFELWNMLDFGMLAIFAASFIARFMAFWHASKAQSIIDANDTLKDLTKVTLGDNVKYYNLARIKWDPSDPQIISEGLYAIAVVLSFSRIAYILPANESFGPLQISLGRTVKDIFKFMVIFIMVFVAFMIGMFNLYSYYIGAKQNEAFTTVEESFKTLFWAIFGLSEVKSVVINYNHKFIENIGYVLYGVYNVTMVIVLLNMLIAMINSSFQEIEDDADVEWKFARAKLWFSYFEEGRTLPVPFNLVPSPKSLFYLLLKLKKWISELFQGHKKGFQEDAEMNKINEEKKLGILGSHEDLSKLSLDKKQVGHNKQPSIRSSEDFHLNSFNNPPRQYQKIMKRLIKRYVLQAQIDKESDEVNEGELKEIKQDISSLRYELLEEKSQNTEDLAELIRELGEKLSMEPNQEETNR
Summary of the method: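 Calcium-dye-loaded HEK293 cells stably expressing human TRPC6 were pretreated with compound for 25 min, then stimulated with 50 μM OAG (0.5% DMSO) in Ca ringer buffer pH 7.2 with 2 mM CaCl2. Background-subtracted FLIPR calcium peaks were normalized to OAG (100%) and buffer (0%); pIC50 came from four-parameter logistic fit, binned as +/++/+++.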

IC50	SMILES
10 to 1000 nM	Cc1nc(Oc2cc(Cl)ccc2-c2ncc([C@@H](F)CN)cn2)cc(N2CCOCC2)n1 [compound 1374, (2R)-2-[2-[4-chloro-2-(2-methyl-6-morpholin-4-ylpyrimidin-4-yl)oxyphenyl]pyrimidin-5-yl]-2-fluoroethanamine]
10 to 1000 nM	Cc1nc(Oc2cc(Cl)ccc2-c2ncc([C@H](F)CN)cn2)cc(N2CCOCC2)n1 [compound 1375, (2S)-2-[2-[4-chloro-2-(2-methyl-6-morpholin-4-ylpyrimidin-4-yl)oxyphenyl]pyrimidin-5-yl]-2-fluoroethanamine]
10 to 1000 nM	Cc1nc(Oc2cc(Cl)ccc2-c2ncc([C@@H](O)CN)cn2)cc(N2CCOCC2)n1 [compound 1376, (1R)-2-amino-1-[2-[4-chloro-2-(2-methyl-6-morpholin-4-ylpyrimidin-4-yl)oxyphenyl]pyrimidin-5-yl]ethanol]
10 to 1000 nM	Cc1nc(Oc2cc(Cl)ccc2-c2ncc([C@H](O)CN)cn2)cc(N2CCOCC2)n1 [compound 1377, (1S)-2-amino-1-[2-[4-chloro-2-(2-methyl-6-morpholin-4-ylpyrimidin-4-yl)oxyphenyl]pyrimidin-5-yl]ethanol]
10 to 1000 nM	Cc1nc(Oc2cc(Cl)ccc2-c2ncc(CCN)cn2)cc(N2CCOCC2)n1 [compound 1378, 2-[2-[4-chloro-2-(2-methyl-6-morpholin-4-ylpyrimidin-4-yl)oxyphenyl]pyrimidin-5-yl]ethanamine]
> 1000 nM	Cn1nc(-c2ccccn2)cc1Oc1cc(Cl)ccc1-c1ccc([C@H](N)C(F)(F)F)cn1 [compound 1379, (1S)-1-[6-[4-chloro-2-(2-methyl-5-pyridin-2-ylpyrazol-3-yl)oxyphenyl]pyridin-3-yl]-2,2,2-trifluoroethanamine]
< 10 nM	C[C@@H](N)c1ccc(-c2ccc(Cl)cc2Oc2cc(-c3ccccn3)nn2C)nc1 [compound 1380, (1R)-1-[6-[4-chloro-2-(2-methyl-5-pyridin-2-ylpyrazol-3-yl)oxyphenyl]pyridin-3-yl]ethanamine]
10 to 1000 nM	Cn1nc(C2CC2)cc1Oc1cc(F)ccc1-c1ncc([C@@H](F)CN)cn1 [compound 1382, (2R)-2-[2-[2-(5-cyclopropyl-2-methylpyrazol-3-yl)oxy-4-fluorophenyl]pyrimidin-5-yl]-2-fluoroethanamine]
10 to 1000 nM	Cn1nc(C2CC2)cc1Oc1cc(F)ccc1-c1ncc([C@H](O)CN)cn1 [compound 1383, (1S)-2-amino-1-[2-[2-(5-cyclopropyl-2-methylpyrazol-3-yl)oxy-4-fluorophenyl]pyrimidin-5-yl]ethanol]
10 to 1000 nM	Cn1nc(C2CC2)cc1Oc1cc(F)ccc1-c1ncc([C@@H](O)CN)cn1 [compound 1384, (1R)-2-amino-1-[2-[2-(5-cyclopropyl-2-methylpyrazol-3-yl)oxy-4-fluorophenyl]pyrimidin-5-yl]ethanol]

Further lines, the compound ahead of its results:

SMILES	IC50
Cn1nc(-c2ccccn2)cc1Oc1cc(Cl)ccc1-c1ncc([C@H](O)CN)cn1 [compound 1358, (1S)-2-amino-1-[2-[4-chloro-2-(2-methyl-5-pyridin-2-ylpyrazol-3-yl)oxyphenyl]pyrimidin-5-yl]ethanol]	10 to 1000 nM
Cn1nc(C2CCOCC2)cc1Oc1cc(Cl)ccc1-c1ncc([C@H](F)CN)cn1 [compound 1359, (2S)-2-[2-[4-chloro-2-[2-methyl-5-(oxan-4-yl)pyrazol-3-yl]oxyphenyl]pyrimidin-5-yl]-2-fluoroethanamine]	10 to 1000 nM
Cn1nc(C2CCOCC2)cc1Oc1cc(Cl)ccc1-c1ncc([C@@H](F)CN)cn1 [compound 1360, (2R)-2-[2-[4-chloro-2-[2-methyl-5-(oxan-4-yl)pyrazol-3-yl]oxyphenyl]pyrimidin-5-yl]-2-fluoroethanamine]	< 10 nM
Cn1nc(C2CCOCC2)cc1Oc1cc(Cl)ccc1-c1ccc(CN)cn1 [compound 1361, [6-[4-chloro-2-[2-methyl-5-(oxan-4-yl)pyrazol-3-yl]oxyphenyl]pyridin-3-yl]methanamine]	< 10 nM
Cn1nc(C2CCOCC2)cc1Oc1cc(Cl)ccc1-c1ncc(CN)cn1 [compound 1362, [2-[4-chloro-2-[2-methyl-5-(oxan-4-yl)pyrazol-3-yl]oxyphenyl]pyrimidin-5-yl]methanamine]	10 to 1000 nM
Cn1nc(-c2ccccn2)cc1Oc1cc(Cl)ccc1-c1ccc([C@@H](N)CO)cn1 [compound 1363, (2R)-2-amino-2-[6-[4-chloro-2-(2-methyl-5-pyridin-2-ylpyrazol-3-yl)oxyphenyl]pyridin-3-yl]ethanol]	> 1000 nM
Cn1nc(-c2ccccc2)nc1Oc1cc(Cl)ccc1-c1ncc(CN)cn1 [compound 1364, [2-[4-chloro-2-[(2-methyl-5-phenyl 1,2,4-triazol-3-yl)oxy]phenyl]pyrimidin-5-yl]methanamine]	> 1000 nM
Cn1nc(-c2ccccc2)nc1Oc1cc(Cl)ccc1-c1ncc(CCN)cn1 [compound 1365, 2-[2-[4-chloro-2-[(2-methyl-5-phenyl-1,2,4-triazol-3-yl)oxy]phenyl]pyrimidin-5-yl]ethanamine]	> 1000 nM
Cn1nc(C2CC2)cc1Oc1cc(C#N)ccc1-c1ncc([C@@H](F)CN)cn1 [compound 1366, 4-[5-[(1R)-2-amino-1-fluoroethyl]pyrimidin-2-yl]-3-(5-cyclopropyl-2-methylpyrazol-3-yl)oxybenzonitrile]	< 10 nM
Cn1nc(C2CC2)cc1Oc1cc(C#N)ccc1-c1ncc([C@H](F)CN)cn1 [compound 1367, 4-[5-[(1S)-2-amino-1-fluoroethyl]pyrimidin-2-yl]-3-(5-cyclopropyl-2-methylpyrazol-3-yl)oxybenzonitrile]	< 10 nM
Cn1nc(C2CCOCC2)cc1Oc1cc(C#N)ccc1-c1ccc([C@@H](F)CN)cn1 [compound 1368, 4-[5-[(1R)-2-amino-1-fluoroethyl]pyridin-2-yl]-3-[2-methyl-5-(oxan-4-yl)pyrazol-3-yl]oxybenzonitrile]	< 10 nM
Cn1nc(C2CCOCC2)cc1Oc1cc(C#N)ccc1-c1ccc([C@H](F)CN)cn1 [compound 1369, 4-[5-[(1S)-2-amino-1-fluoroethyl]pyridin-2-yl]-3-[2-methyl-5-(oxan-4-yl)pyrazol-3-yl]oxybenzonitrile]	< 10 nM
Cn1nc(C2CC2)cc1Oc1cc(Cl)cnc1-c1ccc([C@@H](F)CN)cn1 [compound 1370, (2R)-2-[6-[5-chloro-3-(5-cyclopropyl-2-methylpyrazol-3-yl)oxypyridin-2-yl]pyridin-3-yl]-2-fluoroethanamine]	10 to 1000 nM
Cn1nc(C2CC2)cc1Oc1cc(Cl)cnc1-c1ccc([C@H](F)CN)cn1 [compound 1371, (2S)-2-[6-[5-chloro-3-(5-cyclopropyl-2-methylpyrazol-3-yl)oxypyridin-2-yl]pyridin-3-yl]-2-fluoroethanamine]	< 10 nM
Cn1nc(C2CCOCC2)cc1Oc1cc(Cl)cnc1-c1ccc([C@@H](F)CN)cn1 [compound 1372, (2R)-2-[6-[5-chloro-3-[2-methyl-5-(oxan-4-yl)pyrazol-3-yl]oxypyridin-2-yl]pyridin-3-yl]-2-fluoroethanamine]	> 1000 nM
Cn1nc(C2CCOCC2)cc1Oc1cc(Cl)cnc1-c1ccc([C@H](F)CN)cn1 [compound 1373, (2S)-2-[6-[5-chloro-3-[2-methyl-5-(oxan-4-yl)pyrazol-3-yl]oxypyridin-2-yl]pyridin-3-yl]-2-fluoroethanamine]	< 10 nM

Reference: patent publication US20230167073A1 (Teijin Pharma Limited, priority 2020, published 2023)
